# Laboratory results: patent US10576145B2, “CD200 inhibitors and methods of use thereof” (REGENTS OF THE UNIVERSITY OF MINNESOTA, priority 2014, dated 2020)
# Entries after “also recorded” stand apart in the source; their conditions may differ.
# Columns and labels:
# [1] = test system: naïve splenocytes pulsed with purified CD200 protein; assay: Naive splenocytes pulsed with purified CD200 +/- CD200R antagonist: MDSC expansion and arginase-I; format: cell-based
# Method: FIGS. 17A-17B. CD200R antagonist blocks MDSC expansion and tumor suppressive effects. (FIG. 17A) Murine glioma GL261 was incubated with naïve splenocytes in a trans-well plate+/−CD200R antagonist and analyzed for MDSC expansion and cytokine production. (FIG. 17B) Naïve splenocytes were pulsed with purified CD200+/−CD200R antagonist and analyzed for MDSC expansion and arginase-I production. Error bars are ±SEM, statistical significance was determined by one-way ANOVA, post hoc analysis by Dunn's multiple comparison test, *p<0.05, ** p<0.001.
# Spleens were harvested homogenized in RPMI media containing 10% FBS, penicillin/streptomycin (100 U/ml), and 0.1 mg/ml Normocin (Invivogen). Cells were then filtered using a 70-micron filter, centrifuged, and resuspended in 5 ml of Ammonium-Chloride-Potassium buffer and incubated for 5 minutes at room temperature to lyse RBCs. […] Following 24 h incubation, CD200R antagonist peptide 6059 was added to the appropriate wells, incubated for 20 min prior to adding 5 μg of purified CD200 protein (Sino Biological) and incubated for a further 72 hrs, harvested and analyzed for anti-CD11b and […] population using an LSR II flow cytometer. […] Following incubation, 50 μl culture supernatant was analyzed for IFN-γ using a flow cytometric bead array according to the manufacturer's protocol (BD Biosciences). […]
# [2] = test system: GL261 tumor bearing mice; assay: OVA+Poly:ICLC vaccination of GL261 tumor bearing mice +/- CD200R antagonist: OVA-specific CD8 T cells and recall cytokines; format: in vivo, C57BL/6 mice; details: for SIINFEKL-specific CD8 T cells (OVA-specific T cell expansion): blood, flow cytometry
# Text: FIGS. 2A-2B. FIG. 2A) Vaccination scheme. Tumor bearing or non-tumor bearing mice were vaccinated on day 2 and 8 with an agonist (4012) or antagonist (6059) only, and on days 3-6 and 10 with OVA+Poly:ICLC+/−the competitive inhibitor 6059 (antagonist of a agonist). FIG. 2B) Mice were bled on day 10, whole blood was stained with an anti-CD8 and SI[[N]]INFEKL (SEQ ID NO: 11) specific detramer, lysed and analyzed by flow cytometry.
# FIGS. 3A-3B. Tumor bearing or non-tumor bearing mice were vaccinated on day 2 and 8 with an agonist or antagonist only, and on days 3-6 and 10 with OVA+Poly:ICLC+/−the competitive inhibitor 6059 (antagonist of a agonist). On day 10, were harvested and stimulated with OVA protein to measure a recall response via cytokine release. FIG. 3A) TNF alpha (PG/ML) levels from tumor bearing mice. FIG. 3B) INF gamma (PG/ML) levels in tumor bearing mice.
# FIGS. 12A-12C. […] Tumor and non-tumor bearing mice were vaccinated with OVA+Poly:ICLC+/−the CD200R antagonist 6059 and analyzed for FIG. 12A) SIINFEKL/Kb+CD8+ T cell expansion (‘SIINFEKL’ disclosed as SEQ ID NO: 11). FIG. 12B) Lymphocytes were harvested and stimulated with SIINFEKL peptide (SEQ ID NO: 11). Supernatants were analyzed for TNFα and IFNγ secretion. FIG. 12C) The antagonist 6059 was added to OVA+exosomes. Error bars indicate +/−SEM (n=4/group; *P<0.05; by t-test). FIGS. 12A-12C discloses ‘SIINFEKL’ disclosed as SEQ ID NO: 11.
# FIGS. 18A-18D. […] (FIG. 18A & FIG. 18B) Tumor bearing mice were vaccinated with OVA+Poly:ICLC+/−antagonist then analyzed for OVA-specific T cells and cytokine production following in vitro restimulation with OVA. Tumor bearing mice were vaccinated with saline (n=10), tumor lysate+CpG (n=10) or tumor lysate+CpG+antagonist 6059 (n=10). (FIG. 18C) Mice were imaged weekly for tumor growth and (FIG. 18D) followed for survival. Error bars are ±SEM, *p<0.05, ** p<0.001 was determined by one-way ANOVA, post hoc analysis by Dunn's multiple comparison test, log-rank analysis was used for survival. […]
# Anti-mouse CD8α-Pacific Blue (clone 53-6.7) was purchased from eBioscience. A SIINFEKL/K^b dextramer-PE (‘SIINFEKL’ disclosed as SEQ ID NO: 11) was used for detection of SIINFEKL/K^b-binding CD8 T-cells (Immunodex) (‘SIINFEKL’ disclosed as BEQ ID NO: 11). […] A 100 μl sample of whole blood was immediately analyzed for percentage of MDSCs ((Lineage-FITC (CD3, CD14, CD16, CD19, CD20, CD56) CD33-APC, HLA-DR-PerCp)) by flow cytometry. Sera CD200 levels were determined by ELISA (Sino Biological Inc.).
# Lymph nodes were homogenized in RPMI media containing 10% FBS, penicillin/streptomycin (100 U/ml), and 0.1 mg/ml Normocin (Invivogen). […] Fifty microliters of supernatant was analyzed for IFN-γ using a flow cytometric bead array according to the manufacturer's protocol (BD Biosciences).
sequence,measurement,setting,value
NTIGDGGCY [Antagonist 6059],CD200 induced arginase-I secretion,[1],blocked CD200 induced arginase-I secretion
same,CD200 induced MDSC expansion,[1]; pre-incubation with antagonist,significantly blocked CD200 induced MDSC expansion
same,Suppressive effects of the tumor environment (overall statement),"[2]; prime boost model, tumor-bearing mice",reversed the suppressive effects in tumor-bearing mice; also recorded: reverses the suppressive effects of the tumor environment; also recorded: blocks CD200 induced immune suppression
same,SIINFEKL-specific CD8 T cells (OVA-specific T cell expansion),"[2]; tumor bearing mice, OVA+Poly:ICLC +/- antagonist",reversed tumor induced suppression; also recorded: increased numbers of SIINFEKL-specific CD8 T-cells; also recorded: reversed the suppressive effects of the tumor microenvironment
same,SIINFEKL-specific CD8 T cells (OVA-specific T cell expansion),"[2]; tumor bearing mice, OVA+Poly:ICLC +/- antagonist, listed as CD200 antagonist",significantly enhanced the expansion of a SIINFEKL/CD8 T cell population
same,TNFα and IFNγ production after restimulation of cervical lymph node lymphocytes (recall response),"[2]; tumor bearing mice, OVA+Poly:ICLC +/- antagonist, restimulation with OVA/SIINFEKL, 48 hrs",modulate/reverse glioma-induced suppression; also recorded: significantly enhanced TNFγ and IFNγ production; also recorded: reversed the suppressive effects of the tumor microenvironment
